In US10519101B2, “Trans-cyclooctene amino and hydroxy acids and their use in multiple cycloaddition reactions for labeling of molecules” (EUROPEAN MOLECULAR BIOLOGY LABORATORY, priority 2014, dated 2019):
“Also recorded” adds a separate entry of the source.

Key:
[1] = tested on: HEK293T cells; test: Pulse-chase dual-color labeling of insulin receptor IR^TAG; format: cell-based
Protocol: For insulin receptor experiments, HEK293T cells were maintained in Dulbecco's Modified Eagle's Medium—DMEM (high glucose—4.5 g/l) supplemented with 10% FBS (Sigma), 1% L-glutamine (Invitrogen, Palo Alto, USA) and 1% Pen-Strep (Invitrogen) in a 5% CO2 atmosphere at 37° C. Cells were passaged every 2-3 days up to 15-20 passages. For microscopy, cells were seeded on 4-well chambered Lab-Tek #1.0 borosilicate coverglass (ThermoFisher, Ma USA) 15-24 h prior to transfections. Transfections were performed with JetPrime reagent (PegLab, Erlangen, Germany) according to the manufacturer's recommendations. In short, for double-transfections with IR and tRNA^Pyl/PylRS^AF vectors we used plasmids in 1:1 ratio keeping total amount of DNA at 1 μg. UAAs were added after the transfections in two pulses (see FIG. 2a). UAAs were dissolved in DMSO (250 mM stock of PrK; 100 mM stock of TCO*) or 20% formic-acid DMSO (500 mM stock of BCN; 250 mM stock of SCO). Each UAA was used at a final concentration of 250 μM. After the 2nd UAA pulse, cells were rinsed with fresh medium and kept overnight in DMEM.
In the morning following transfections, medium was exchanged to serum-free high glucose DMEM […], in which all the subsequent washing and labeling steps were also performed. The transfected cells were then labeled according to the following protocols. […]

[2] = Long time stability of the covalent bond in labeled proteins (FRET); details: labeled with Me-Tet-Cy3, excess filtered off, 4 h to 76 h
Protocol: To proof the stability of the formed covalent bonds between TCO* and the dye-Tet in a SPIEDAC reaction, long time FRET experiments were carried out. Basically, the same FRET assay as described above was used to test whether the fluorophores stays covalently attached to the protein or not over a period of 36 h. 200 nM GFP^TAG→3 were separately reacted with 2 μM Me-Tet-Cy3 at room temperature (rt) and the ratio between D and A fluorophore was followed over time.
In another experiment, Ni-NTA-purified GFP^TAG→UAA (1-4) was labeled with Me-Tet-Cy3 (2 h, 37° C.). Excess Me-Tet-Cy3 was filtered off (˜2 h). 200 nM labeled GFP^TAG>UAA+Cy3 (with 1-4) were followed over time by FRET as described above. Note that the first data point was taken approximately 4 h after adding the tetrazine to the proteins. No significant changes between the FRET ratio measured after 4 h and after 76 h were observed (FIG. 7).

[3] = biological target: T1, tRNA^Pyl/PylRS^AF (Methanosarcina mazei, UniProt Q8PWY1, Y306A/Y384F); test: Recombinant expression of GFP^TAG→UAA in E. coli (amber suppression, UAA incorporation); format: cell-based; details: for protein yields / incorporation rate compared with compound 2: E. coli, 1 mM UAA, GFP^Y39TAG; for incorporation rate compared with compound 2: FIG. 12; for expression yield of GFP^TAG→UAA (Coomassie SDS-PAGE): compared with TCO
T1 construct: expressed in transfected cells; host or cells: E. coli Top10 (Invitrogen), co-transformed with pEvolv tRNA^Pyl/PylRS^AF and pBAD GFP^Y39TAG
T1 sequence (Q8PWY1 whole entry Y306A/Y384F): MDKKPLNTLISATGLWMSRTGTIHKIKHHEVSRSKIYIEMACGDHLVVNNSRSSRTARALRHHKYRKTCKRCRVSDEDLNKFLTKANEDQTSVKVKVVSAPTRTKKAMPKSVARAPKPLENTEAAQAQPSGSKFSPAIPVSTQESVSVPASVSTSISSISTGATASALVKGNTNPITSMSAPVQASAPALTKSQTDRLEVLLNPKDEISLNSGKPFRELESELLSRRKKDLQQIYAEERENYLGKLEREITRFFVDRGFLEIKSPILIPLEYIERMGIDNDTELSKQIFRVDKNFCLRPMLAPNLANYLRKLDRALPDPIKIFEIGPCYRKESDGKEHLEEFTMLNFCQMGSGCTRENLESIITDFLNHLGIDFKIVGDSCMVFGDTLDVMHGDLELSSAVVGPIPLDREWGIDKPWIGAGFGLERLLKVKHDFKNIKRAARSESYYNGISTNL

[4] = Stability of trans-cyclooctenyl isomers against thiols by 1H-NMR; format: physicochemical; details: two equivalents of cysteamine, 60° C., ten days (240 h)
Protocol: In order to test for stability against thiols, UAAs 2-4 were separately combined with two equivalents of cysteamine hydrochloride in dPBS/dioxane-d8 (v/v 1:1), NMR tubes were tightly sealed, and incubated at rt, 37° C., or 60° C. ^1H-NMR spectra were measured after 24 h of incubation and later time points (in case of 3). […] For all three trans-cyclooctene-containing UAAs, conversion of the trans-cyclooctenyl-form to its corresponding cis-cyclooctenyl-form was observed (FIG. 8b). […] These numbers were obtained by comparing the integrals for the double bond protons and the —CHO— protons (if possible/applicable) before and after the heat treatment as it was done before by others for similar compounds ((a) B. R. Varga, M. Kallay, K. Hegyi, S. Beni, P. Kele, Chemistry 2012, 18, 822-828; b) R. van Geel, G. J. Pruijn, F. L. van Delft, W. C. Boelens, Bioconjugate chemistry 2012, 23, 392-398; J. Yang, J. Seckute, C. M. Cole, N. K. Devaraj, Angew Chem Int Ed Engl 2012, 51, 7476-7479). Observations at different temperatures were consistent with the expectation that the higher the temperature, the faster/easier the isomerization. Isomerization to the cis-form continued in samples kept at rt or 37° C. after 24 h (data not shown).

[5] = Stability of UAAs by 1H-NMR without thiols; format: physicochemical; details: dPBS (pH 7.4)/dioxane-d8 (v/v 1:1); rt, 37° C., 60° C.; 72 h
Protocol: Therefore, 0.1 M NaOH (for E. coli cells) and DMSO (for mammalian cells) are well suited solvents for the preparation of stock solutions for biological experiments. However, stock solutions were stored at −20° C. and thaw 30 min before usage.
Taking the properties of the purified compounds into account, these conditions resemble the nearest physiological conditions possible, as they prevail in biological experiments (living cells, aqueous buffered solutions of proteins) ((a) B. R. Varga, M. Kallay, K. Hegyi, S. Beni, P. Kele, Chemistry 2012, 18, 822-828; b) R. van Geel, G. J. Pruijn, F. L. van Delft, W. C. Boelens, Bioconjugate chemistry 2012, 23, 392-398).

[6] = 1H-NMR assay of orthogonality of seSPIEDAC and SPIEDAC reactions; format: physicochemical; details: 5 mm dienophile, 10 mm tetrazine, DMSO-d6, 10 min at room temperature
Protocol: Stock solutions of the dienophiles in DMSO-d6 with a final concentration of 10 mm were prepared. A 20 mm stock of the formic acid salt of (4-(6-methyl-1,2,4,5-tetrazine-3-yl)phenyl)methanamine (termed as methyl tetrazine or Me-Tet-NH2) in DMSO-d6 was prepared, too. As control experiment, either the dienophile or the diene (Me-Tet-NH2) were mixed with DMSO-d6 1:1 (v/v; 760 μl total volume) to yield a final concentration of 5 mm or 10 mm, respectively, in the NMR tube. To confirm whether a dienophile reacts with the diene (Me-Tet-NH2) or not, the corresponding stocks were mixed 1:1 (v/v; 760 μl total volume) to yield a final concentration of 5 mm of the dienophile and 10 mm of the diene in the NMR tube. The samples were incubated for 10 min at room temperature before analyzed by ^1H-NMR.

[7] = FRET assay of labeling kinetics of GFP^TAG→UAA with Me-Tet-Cy3; details: tested experimental conditions of the FRET assay; listed as SCO
Protocol: For observation of labeling kinetics, GFP^TAG→UAA was expressed with 1-5 (for structures of UAAs see FIG. 1a). E. coli lysate was adjusted to a final GFP concentration of 200 nM based on absorbance spectra. H-Tet-Atto532 7 or Me-Tet-Cy3 8 (see FIG. 4), respectively, were added to a final concentration of 2 μM and fluorescence spectra (excitation at λ=450 nm, emission λ=470-650 nm) were recorded at different time points. The experiments were carried out in a total volume of 2 ml and continuous stirring. 1 mM stocks of the dyes in DMSO were used. Successful labeling of GFP^TAG→UAA was monitored by Foerster resonance energy transfer (FRET) from the GFP-chromophore (serving as a Donor, D) to the synthetic fluorophore (Acceptor, A) when covalently attached. In the individual spectra this is visible by a decrease of GFP-fluorescence (around λ=503-506 nm) and a simultaneous increase of Atto532- (λ=551 nm) or Cy3-fluorescence (λ=563 nm), respectively, over time (shown exemplarily for GFP^TAG→3 (TCO*) in the left panel of FIG. 5). […] Note that time point “0 min” is defined as the time point about 15 s after pipetting the dye to the protein solution. […]

Row | Structure (SMILES) | protein yields [3] [mg/L] | incorporation rate compared with compound 2 [3] | expression yield of GFP^TAG→UAA (Coomassie SDS-PAGE) [3] | stability by 1H-NMR [5] | further results
1 | N[C@@H](CCCCNC(=O)OCC1C2CCC#CCCC21)C(=O)O (some centres unmarked) [Compound 1] |  |  |  |  | labeling of IR (confocal) ([1]; TCO* pulse, BCN chase, Me-Tet-Cy5, quencher, H-Tet-Atto532): no signal in the Atto532 channel was observed; stability of covalent bond, FRET ratio over time [2]: consistent FRET values over time
2 | N[C@@H](CCCCNC(=O)OC1/C=C/CCCCC1)C(=O)O (stereo in doubt) [Compound 3b, N-ε-((trans-Cyclooct-2-en-1-yloxy)carbonyl)-L-lysine] | 0.4 | more readily incorporated than compound 2 by about a factor of two | higher expression yields than the TCO |  | 
3 | N[C@@H](CCCCNC(=O)OC1/C=C/CCCCC1)C(=O)O (stereo partly drawn) [Compound 3, N-ε-((trans-Cyclooct-2-en-1-yloxy)carbonyl)-L-lysine] | 0.4 | more readily incorporated than compound 2 by about a factor of two | higher expression yields than the TCO | remained un-changed | stability of covalent bond, FRET ratio over time [2]: consistent FRET values over time; trans-form left after ten days [4]: more 3 (TCO*) was left in its trans-form than for 2 (TCO) and 4 (TCO^#) after 24 h
4 | N[C@@H](CCCCNC(=O)OC1/C=C/CCCCC1)C(=O)O (stereo in doubt) [Compound 3a, N-ε-((trans-Cyclooct-2-en-1-yloxy)carbonyl)-L-lysine] | 0.4 | more readily incorporated than compound 2 by about a factor of two | higher expression yields than the TCO |  | 
5 | OC1CC2C=CC1C2 (centres unmarked) [5-norbornene-2-ol] |  |  |  |  | reaction with tetrazine Me-Tet-NH2 by 1H-NMR [6]: No new signals were detected
6 | N[C@@H](CCCCNC(=O)OC1C#CCCCCC1)C(=O)O (stereo partly drawn) [Compound 5, N-ε-((Cyclooct-2-yn-1-yloxy)carbonyl)-L-lysine] |  |  |  |  | labeling of IR (confocal) ([1]; TCO* and SCO, Me-Tet-Cy5 then H-Tet-Atto532, 10 min): bright labeling of the IR in the plasma membrane for both channels; Reactivity with Me-Tet (in words) [7]: basically no detectable reactivity; also recorded: no substantial reactivity with Me-Tet
7 | N[C@@H](CCCCNC(=O)OC1C/C=C/CCCC1)C(=O)O (stereo partly drawn) [Compound 4, N-ε-((trans-Cyclooct-3-en-1-yloxy)carbonyl)-L-lysine] |  |  | higher expression yields than the TCO | remained un-changed | 
8 | N[C@@H](CCCCNC(=O)OC1CC/C=C/CCC1)C(=O)O (stereo partly drawn) [Compound 2, N-ε-((trans-Cyclooct-4-en-1-yloxy)carbonyl)-L-lysine] |  |  |  | remained un-changed | 
